Data reported in patent US20260306640A1, “TECHNOLOGIES TARGETING CELL STATES” (Auron Therapeutics, Inc., priority 2023, published 2026).

Legend:
Assay type in all cases: cell-based
[1] = target: T1, KAT2A (Homo sapiens, UniProt Q92830); assay: KAT2A degradation, Western Blot (Jess), MOLM-13 cells; set-up: degrader, Western blot; conditions: MOLM-13 cells, KAT2A, 24 h, Western Blot, vs DMSO; read-out: KAT2A MOLM-13 DC50
Procedure: MOLM-13 cells or NCI-H1048 cells were used for Western Blot analysis of KAT2A degradation. KAT2B degradation can be measured in a similar manner with NCI-H1048 cells.
MOLM-13 cells were maintained at 37° C. in 5% CO2 and 90% humidity in RPMI 1640 supplemented with 20% fetal bovine serum (FBS) and 1× penicillin/streptomycin. Cells were plated in full media at 1-2 million cells/2 mL in a 6-well tissue culture treated plate with or without compounds for 24 h at 37° C. in 5% CO2.
MOLM-13 cells or NCI-H1048 cells were washed with PBS, then lysed with RIPA buffer containing 1×protease and phosphatase inhibitors (SantaCruz Biotechnologies Cat #sc-24948A). Protein was isolated by centrifugation at 12,000×g for 10 minutes at 4° C. and supernatant was collected. Protein was quantified via Bradford assay. Samples were diluted to 4 μg lysate in 16 μL RIPA buffer and then 4 μL of Jess Sample Buffer. Samples were heated at 95° C. for 5 minutes. Samples were loaded onto 12-230 kDa Jess™ Separation Module, 8×25 capillary cartridges (SM-W004, Biotechne). Antibodies loaded were: Primary antibody for KAT2A (GCN5L2 (C26A10) Rabbit mAb (3305, CST)) and for KAT2B (PCAF (C14G9)) Rabbit mAb (3378, CST) at 1:1000 and Anti-Rabbit Detection Module for Jess™ (Cat No #DM-001, Biotechne). Signal was detected by chemiluminescence.
DC50 values were determined from percent reduction of protein as compared to the DMSO control.

[2] = target: T1, KAT2A; assay: KAT2A degradation, Western Blot (Jess), NCI-H1048 cells; set-up: degrader, Western blot (Jess); conditions: NCI-H1048 cells, KAT2A, 24 h, Western Blot, vs DMSO; read-out: KAT2A NCI-H1048 DC50
Outline: (§1)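 NCI-H1048 cells grown in HITES medium with 5% FBS were treated with compounds for 24 h at 37° C. Lysates were run by capillary Western (Jess) with KAT2A or KAT2B antibodies and chemiluminescent detection. DC50 derived from percent protein reduction versus DMSO control.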

[3] = target: KAT2B (Homo sapiens, UniProt Q92831); assay: KAT2B degradation, Western Blot (Jess), NCI-H1048 cells; set-up: degrader, Western blot (Jess); conditions: NCI-H1048 cells, KAT2B, 24 h, Western Blot, vs DMSO; read-out: KAT2B NCI-H1048 DC50
Sequence of KAT2B (Q92831 whole entry): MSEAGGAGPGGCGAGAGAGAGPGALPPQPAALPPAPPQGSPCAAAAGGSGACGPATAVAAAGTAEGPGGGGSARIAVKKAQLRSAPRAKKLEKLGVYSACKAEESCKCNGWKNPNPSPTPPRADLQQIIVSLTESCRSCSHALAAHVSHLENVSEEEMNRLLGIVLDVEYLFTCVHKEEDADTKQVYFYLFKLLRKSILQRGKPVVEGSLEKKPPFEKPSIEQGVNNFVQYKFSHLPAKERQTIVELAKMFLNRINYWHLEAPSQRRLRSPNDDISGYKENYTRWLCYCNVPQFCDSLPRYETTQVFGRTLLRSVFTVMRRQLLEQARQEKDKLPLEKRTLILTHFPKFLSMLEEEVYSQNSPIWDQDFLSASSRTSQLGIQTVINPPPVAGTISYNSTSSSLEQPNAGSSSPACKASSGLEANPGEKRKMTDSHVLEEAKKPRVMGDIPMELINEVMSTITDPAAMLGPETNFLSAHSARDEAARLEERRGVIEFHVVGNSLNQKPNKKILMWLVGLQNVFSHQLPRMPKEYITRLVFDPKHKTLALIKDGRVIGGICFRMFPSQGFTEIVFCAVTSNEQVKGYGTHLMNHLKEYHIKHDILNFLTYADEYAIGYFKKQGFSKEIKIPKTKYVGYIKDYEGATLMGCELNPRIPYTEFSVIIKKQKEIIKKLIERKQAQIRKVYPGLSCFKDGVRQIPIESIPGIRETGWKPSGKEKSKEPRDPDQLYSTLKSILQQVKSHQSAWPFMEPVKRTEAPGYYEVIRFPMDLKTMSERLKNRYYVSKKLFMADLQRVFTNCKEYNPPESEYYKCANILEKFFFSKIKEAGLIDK
Outline: as §1

T1 sequence (Q92830 whole entry): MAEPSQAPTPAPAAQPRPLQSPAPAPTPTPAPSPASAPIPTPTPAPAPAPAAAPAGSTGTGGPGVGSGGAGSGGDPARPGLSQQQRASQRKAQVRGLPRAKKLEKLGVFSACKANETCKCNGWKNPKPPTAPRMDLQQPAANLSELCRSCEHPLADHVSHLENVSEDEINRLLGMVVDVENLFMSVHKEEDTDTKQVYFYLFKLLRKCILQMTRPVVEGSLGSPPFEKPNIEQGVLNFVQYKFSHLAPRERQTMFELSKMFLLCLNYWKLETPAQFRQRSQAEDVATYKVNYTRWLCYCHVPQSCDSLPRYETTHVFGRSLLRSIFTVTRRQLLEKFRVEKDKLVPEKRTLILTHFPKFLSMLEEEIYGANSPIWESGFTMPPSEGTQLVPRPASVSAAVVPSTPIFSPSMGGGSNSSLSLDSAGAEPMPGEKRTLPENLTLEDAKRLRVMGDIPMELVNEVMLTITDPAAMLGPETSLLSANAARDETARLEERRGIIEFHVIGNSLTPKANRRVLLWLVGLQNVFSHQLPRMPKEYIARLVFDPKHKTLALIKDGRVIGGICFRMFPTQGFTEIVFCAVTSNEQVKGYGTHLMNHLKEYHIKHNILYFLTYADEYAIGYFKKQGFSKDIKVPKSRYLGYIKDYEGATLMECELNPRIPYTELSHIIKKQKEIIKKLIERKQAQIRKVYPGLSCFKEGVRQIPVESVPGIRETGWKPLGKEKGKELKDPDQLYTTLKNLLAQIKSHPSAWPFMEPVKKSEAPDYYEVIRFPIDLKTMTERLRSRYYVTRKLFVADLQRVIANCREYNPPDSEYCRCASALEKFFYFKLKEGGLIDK

DC50 [1] [nM]	DC50 [2] [nM]	DC50 [3] [nM]	Structure (SMILES)
1 to 30			CN1C[C@H](Nc2cnn(C)c(=O)c2Br)C[C@H](c2ccc(C(=O)N3CCN(c4ccc(F)c(C5CCC(=O)NC5=O)c4)CC3)cc2)C1 (stereo partly drawn) [Compound 153]
< 1			CN1C[C@H](Nc2cnn(C)c(=O)c2Br)C[C@H](c2ccc(CN3CCN(Cc4ccc(Oc5cccc6c5C(=O)N(C5CCC(=O)NC5=O)C6=O)cc4)CC3)cc2)C1 (stereo partly drawn) [Compound 50]
> 30			CN1C[C@H](Nc2cnn(C)c(=O)c2Br)C[C@H](c2ccc(C(=O)N3CCN(Cc4ccc(N5CCC(=O)NC5=O)cc4)CC3)cc2)C1 [Compound 102]
< 1			CN1C[C@H](Nc2cnn(C)c(=O)c2Br)C[C@H](c2ccc(CN3CCC(c4ccc5c(c4)CN(C4CCC(=O)NC4=O)C5=O)C3)cc2)C1 (stereo partly drawn) [Compound 113]
1 to 30			CN1C[C@H](Nc2cnn(C)c(=O)c2Br)C[C@H](c2ccc(C(=O)N3CCC(c4ccc5c(c4)CN(C4CCC(=O)NC4=O)C5=O)CC3)cc2)C1 (stereo partly drawn) [Compound 73]
1 to 30			CN1C[C@H](Nc2cnn(C)c(=O)c2Br)C[C@H](c2ccc(C(=O)OCC3CCN(c4cccc5c4C(=O)N(C4CCC(=O)NC4=O)C5=O)CC3)cc2)C1 (stereo partly drawn) [Compound 32]
< 1			CN1C[C@H](Nc2cnn(C)c(=O)c2Br)C[C@H](c2ccc(C(=O)N3CCN(c4cccc5c4C(=O)N(C4CCC(=O)NC4=O)C5=O)CC3)cc2)C1 (stereo partly drawn) [Compound 14]
1 to 30			CN1C[C@H](Nc2cnn(C)c(=O)c2Br)C[C@H](c2ccc(C(=O)N3CCC(C(=O)N4CCN(c5cccc6c5C(=O)N(C5CCC(=O)NC5=O)C6=O)CC4)CC3)cc2)C1 (stereo partly drawn) [Compound 10]
< 1			CN1C[C@H](Nc2cnn(C)c(=O)c2Br)C[C@H](c2ccc(C(=O)N3CCC4(CC3)CN(c3ccc5c(c3)C(=O)N(C3CCC(=O)NC3=O)C5=O)C4)cc2)C1 (stereo partly drawn) [Compound 97]
< 1			CN1C[C@H](Nc2cnn(C)c(=O)c2Br)C[C@H](c2ccc(C(=O)N3CCN(Cc4cccc(C5CCC(=O)NC5=O)c4)CC3)cc2)C1 (stereo partly drawn) [Compound 100]
< 1			CN1C[C@H](Nc2cnn(C)c(=O)c2Br)C[C@H](c2ccc(C(=O)N3CC(Oc4cccc(C5CCC(=O)NC5=O)c4)C3)cc2)C1 (stereo partly drawn) [Compound 185]
1 to 30			CN1C[C@H](Nc2cnn(C)c(=O)c2Br)C[C@H](c2ccc(C(=O)N3CCN(c4ccc5c(c4)n(C)c(=O)n5C4CCC(=O)NC4=O)CC3)cc2)C1 (stereo partly drawn) [Compound 137]
< 1			CN1C[C@H](Nc2cnn(C)c(=O)c2Br)C[C@H](c2ccc(C(=O)N3CCN(Cc4ccc(Oc5cccc6c5C(=O)N(C5CCC(=O)NC5=O)C6=O)cc4)CC3)cc2)C1 (stereo partly drawn) [Compound 49]
< 1			CN1C[C@H](Nc2cnn(C)c(=O)c2Br)C[C@H](c2ccc(CN3CCN(c4ccc(C5CCC(=O)NC5=O)cc4)CC3)cc2)C1 (stereo partly drawn) [Compound 69]
> 30			CN1C[C@H](Nc2cnn(C)c(=O)c2Cl)C[C@H](c2ccc(C(=O)N3CCC(c4cccc5c4CN(C4CCC(=O)NC4=O)C5=O)CC3)cc2)C1 (stereo partly drawn) [Compound 91]
< 1			CN1C[C@H](Nc2cnn(C)c(=O)c2Cl)C[C@H](c2ccc(CN3CCC4(CC3)CCN(c3cccc(C5CCC(=O)NC5=O)c3)CC4)cc2)C1 (stereo partly drawn) [Compound 170]
1 to 30			CN1C[C@H](Nc2cnn(C)c(=O)c2Br)C[C@H](c2ccc(CN3CCC(c4cccc5c4CN(C4CCC(=O)NC4=O)C5=O)CC3)cc2)C1 (stereo partly drawn) [Compound 92]
< 1			CN1C[C@H](Nc2cnn(C)c(=O)c2Br)C[C@H](c2ccc(C(=O)NCCCCCCOc3cccc4c3C(=O)N(C3CCC(=O)NC3=O)C4=O)cc2)C1 (stereo partly drawn) [Compound 41]
< 1			CN1C[C@H](Nc2cnn(C)c(=O)c2Br)C[C@H](c2ccc(C(=O)N3CCC(COc4cccc5c4C(=O)N(C4CCC(=O)NC4=O)C5=O)CC3)cc2)C1 (stereo partly drawn) [Compound 45]
< 1			CN1C[C@H](Nc2cnn(C)c(=O)c2Br)C[C@H](c2ccc(CN3CCC(c4ccc5c(c4)CN(C4CCC(=O)NC4=O)C5=O)CC3)cc2)C1 (stereo partly drawn) [Compound 66]

DC50 [1] [nM]	DC50 [2] [nM]	DC50 [3] [nM]	Structure (SMILES)
< 1			CN1C[C@H](Nc2cnn(C)c(=O)c2Br)C[C@H](c2ccc(COC3CN(c4ccc5c(c4)C(=O)N(C4CCC(=O)NC4=O)C5=O)C3)cc2)C1 (stereo partly drawn) [Compound 117]
< 1			CN1C[C@H](Nc2cnn(C)c(=O)c2Br)C[C@H](c2ccc(C(=O)N3CCC(F)(CN4CCN(c5ccc6c(c5)C(=O)N(C5CCC(=O)NC5=O)C6=O)CC4)CC3)cc2)C1 (stereo partly drawn) [Compound 112]
1 to 30			CN1C[C@H](Nc2cnn(C)c(=O)c2Br)C[C@H](c2ccc(COc3ccc(C4CCC(=O)NC4=O)cc3)cc2)C1 (stereo partly drawn) [Compound 151]
1 to 30			CN1C[C@H](Nc2cnn(C)c(=O)c2Br)C[C@H](c2ccc(C(=O)N3CCC(c4cccc5c4CN(C4CCC(=O)NC4=O)C5=O)CC3)cc2)C1 (stereo partly drawn) [Compound 83]
1 to 30			CN1C[C@H](Nc2cnn(C)c(=O)c2Br)C[C@H](c2ccc(CN3CCN(Cc4cccc5c4C(=O)N(C4CCC(=O)NC4=O)C5=O)CC3)cc2)C1 (stereo partly drawn) [Compound 58]
1 to 30			CN1C[C@H](Nc2cnn(C)c(=O)c2Br)C[C@H](c2ccc(CN(C)c3ccc(Oc4cccc5c4C(=O)N(C4CCC(=O)NC4=O)C5=O)cc3)cc2)C1 (stereo partly drawn) [Compound 53]
	< 1	< 1	CN1C[C@H](Nc2cnn(C)c(=O)c2Br)C[C@H](c2ccc(C(=O)N3CCC4(CC3)CCN(c3ccc(C(=O)NC5CCC(=O)NC5=O)nc3)CC4)cc2)C1 (stereo partly drawn) [Compound 402]
	< 1	< 1	CN1C[C@H](Nc2cnn(C)c(=O)c2Cl)C[C@H](c2ccc(C(=O)N3CCC4(CC3)CCN(c3ccc(N5CCC(=O)NC5=O)c(F)c3)CC4)cc2)C1 [Compound 398]
	< 1	1 to 30	CN1C[C@H](Nc2cnn(C)c(=O)c2Br)C[C@H](c2ccc(CN3CCN(c4cccc(C5CCC(=O)NC5=O)c4)CC34CC4)cc2)C1 (stereo partly drawn) [Compound 348]
	< 1	1 to 30	CN1C[C@H](Nc2cnn(C)c(=O)c2Cl)C[C@H](c2ccc(C(=O)N3CCC4(CC3)CCN(c3ccc(C(=O)NC5CCC(=O)NC5=O)c(F)c3)CC4)cc2)C1 (stereo partly drawn) [Compound 405]
	< 1	1 to 30	C[C@H](Nc1nn(C)c(=O)c2cccnc12)[C@H](c1ccc(C(=O)N2CCC3(CC2)CCN(c2ccc(C4CCC(=O)NC4=O)cc2)CC3)cc1)N(C)C (stereo partly drawn) [Compound 429, 3-(4-(9-(4-((1S,2S)-1-(dimethylamino)-2-((6-methyl-5-oxo-5,6-dihydropyrido[2,3-d]pyridazin-8-yl)amino)propyl)benzoyl)-3,9-diazaspiro[5.5]undecan-3-yl)phenyl)piperidine-2,6-dione]
	< 1	> 30	Cc1c(N[C@@H]2C[C@H](c3ccc(C(=O)N4CCC(C#Cc5ccc(C6CCC(=O)NC6=O)cc5)CC4)cc3)CN(C)C2)cnn(C)c1=O (stereo partly drawn) [Compound 333]
	< 1	< 1	Cc1cc(N2CCC3(CCN(C(=O)c4ccc([C@H]5C[C@@H](Nc6cnn(C)c(=O)c6Br)CN(C)C5)cc4)CC3)CC2)ccc1N1CCC(=O)NC1=O [Compound 395]
	1 to 30	> 30	CN1C[C@H](Nc2cnn(C)c(=O)c2Br)C[C@H](c2ccc(CN3Cc4cc5c(cc4C3)C(=O)N(C3CCC(=O)NC3=O)C5=O)cc2)C1 (stereo partly drawn) [Compound 200]
	< 1	< 1	CN1C[C@H](Nc2cnn(C)c(=O)c2Br)C[C@H](c2ccc(C(=O)N3CCC4(CC3)CCN(c3ccc(C5CCC(=O)NC5=O)cc3)CC4)cc2)C1 (single isomer, unassigned) [Compound 239]
	< 1	1 to 30	Cc1c(C2CCC(=O)NC2=O)ccc(N2CCC3(CCN(C(=O)c4ccc([C@H]5C[C@@H](Nc6cnn(C)c(=O)c6Br)CN(C)C5)cc4)CC3)CC2)c1F (stereo partly drawn) [Compound 254]
	< 1	> 30	COc1cc(N2CCC3(CCN(C(=O)c4ccc([C@H]5C[C@@H](Nc6cnn(C)c(=O)c6Br)CN(C)C5)cc4)CC3)CC2)c(C)cc1C1CCC(=O)NC1=O (stereo partly drawn) [Compound 284]
	1 to 30	> 30	CN1C[C@H](Nc2cnn(C)c(=O)c2Cl)C[C@H](c2ccc(C(=O)N3CC(c4cccc(C5CCC(=O)NC5=O)c4)C3)cc2)C1 (stereo partly drawn) [Compound 193]
	1 to 30	> 30	CN1C[C@H](Nc2cnn(C)c(=O)c2Cl)C[C@H](c2ccc(C(=O)N3CC(c4ccc5c(c4)C(=O)N(C4CCC(=O)NC4=O)C5=O)C3)cc2)C1 (stereo partly drawn) [Compound 198]
	1 to 30	> 30	Cc1c(N[C@@H]2C[C@H](c3ccc(CN4CCN(c5ccnc(C6CCC(=O)NC6=O)c5)CC4)cc3)CN(C)C2)cnn(C)c1=O (stereo partly drawn) [Compound 352]
